Data reported in PubChem BioAssay AID1963441 (Molecular Pharmacology Branch, DTP, NCI, 2024).

Test system: NCI-H1876 complex spheroid growth, % test/control
Assay: Anticancer human tumor NCI-H1876 cell line growth inhibition [Asc];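 further: compound exposure lasted 7 days starting three days after seeding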;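 on viability, T/C: 100% = DMSO vehicle control wells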
Conditions: for viability, T/C: stronger effect = lower value; active means viability on the fitted dose curve at most 10% of control; inactive means the rest
Outline: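 Complex solid-tumor spheroids incorporating human endothelial and mesenchymal stem cells received single agents or combinations over half-log dilution ranges anchored to clinical Cmax.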

[1] = curve of first compound, second compound 0.0316 µM
[2] = curve of first compound, second compound 0.1 µM
[3] = curve of first compound, second compound 0.316 µM
[4] = curve of first compound, second compound 1 µM

C=CC(=O)N1CCN(c2nc(=O)n(-c3c(C)ccnc3C(C)C)c3nc(-c4c(O)cccc4F)c(F)cc23)C(C)C1 (stereo unspecified) + Cc1c(S(C)(=O)=O)c(-c2cc(F)cc(N3CCN(c4ccc(NS(=O)(=O)c5ccc(NC(CCN6CCC(C(=O)OCCCP(=O)(O)O)CC6)CSc6ccccc6)c(S(=O)(=O)C(F)(F)F)c5)cc4)CC3)c2)c(-c2ccc(Cl)cc2)n1C(C)C
inactive: viability, T/C (second compound 0.0316 µM, first compound 0.0316 µM) 91% | viability, T/C (second compound 0.0316 µM, first compound 0.1 µM) 89.5% | viability, T/C (second compound 0.0316 µM, first compound 0.316 µM) 107% | viability, T/C (second compound 0.0316 µM, first compound 1 µM) 95.2% | viability, T/C (second compound 0.0316 µM, first compound 3.16 µM) 103% | viability, T/C (second compound 0.0316 µM, first compound 10 µM) 109% | viability, T/C (second compound 0.1 µM, first compound 0.0316 µM) 85.7% | viability, T/C (second compound 0.1 µM, first compound 0.1 µM) 99.6% | viability, T/C (second compound 0.1 µM, first compound 0.316 µM) 101% | viability, T/C (second compound 0.1 µM, first compound 1 µM) 106% | viability, T/C (second compound 0.1 µM, first compound 3.16 µM) 108% | viability, T/C (second compound 0.1 µM, first compound 10 µM) 107% | viability, T/C (second compound 0.316 µM, first compound 0.0316 µM) 91.1% | viability, T/C (second compound 0.316 µM, first compound 0.1 µM) 114% | viability, T/C (second compound 0.316 µM, first compound 0.316 µM) 97.6% | viability, T/C (second compound 0.316 µM, first compound 1 µM) 103% | viability, T/C (second compound 0.316 µM, first compound 3.16 µM) 109% | viability, T/C (second compound 0.316 µM, first compound 10 µM) 104% | viability, T/C (second compound 1 µM, first compound 0.0316 µM) 105% | viability, T/C (second compound 1 µM, first compound 0.1 µM) 99.4% | viability, T/C (second compound 1 µM, first compound 0.316 µM) 111% | viability, T/C (second compound 1 µM, first compound 1 µM) 98.6% | viability, T/C (second compound 1 µM, first compound 3.16 µM) 110% | viability, T/C (second compound 1 µM, first compound 10 µM) 114% | viability, T/C (second compound 3.16 µM, first compound 0.0316 µM) 96.4% | viability, T/C (second compound 3.16 µM, first compound 0.1 µM) 95.3% | viability, T/C (second compound 3.16 µM, first compound 0.316 µM) 102% | viability, T/C (second compound 3.16 µM, first compound 1 µM) 97.8% | viability, T/C (second compound 3.16 µM, first compound 3.16 µM) 114% | viability, T/C (second compound 3.16 µM, first compound 10 µM) 96.7% | viability, T/C (second compound 10 µM, first compound 0.0316 µM) 99.2% | viability, T/C (second compound 10 µM, first compound 0.1 µM) 96.5% | viability, T/C (second compound 10 µM, first compound 0.316 µM) 99.6% | viability, T/C (second compound 10 µM, first compound 1 µM) 116% | viability, T/C (second compound 10 µM, first compound 3.16 µM) 106% | viability, T/C (second compound 10 µM, first compound 10 µM) 95.1%
> 10000 nM: IC50 [1] | IC50 [2] | IC50 [3] | IC50 [4] | IC50 (curve of first compound, second compound 3.16 µM) | IC50 (curve of first compound, second compound 10 µM)

CNC(C)C(=O)NC1CN(S(=O)(=O)c2cccc(S(=O)(=O)N3CCC4CCC(C(=O)NC(c5ccccc5)c5ccccc5)N4C(=O)C(NC(=O)C(C)NC)C3)c2)CCC2CCC(C(=O)NC(c3ccccc3)c3ccccc3)N2C1=O (stereo unspecified)
> 1000 nM: IC50 (compound alone, run of 11/15/2022) | IC50 (curve of compound)
inactive: viability, T/C (compound 0.01 µM) 103% [middle of 9 runs] | viability, T/C (compound 0.0316 µM) 105% [middle of 9 runs] | viability, T/C (compound 0.1 µM) 103% [middle of 9 runs] | viability, T/C (compound 0.316 µM) 101% [middle of 9 runs] | viability, T/C (compound 1 µM) 93.7% [middle of 9 runs]

NC(=O)C(=Cn1cnc(-c2cc(C(F)(F)F)cc(C(F)(F)F)c2)n1)c1cncnc1 + CNC(C)C(=O)NC1CN(S(=O)(=O)c2cccc(S(=O)(=O)N3CCC4CCC(C(=O)NC(c5ccccc5)c5ccccc5)N4C(=O)C(NC(=O)C(C)NC)C3)c2)CCC2CCC(C(=O)NC(c3ccccc3)c3ccccc3)N2C1=O
> 300 nM: IC50 (curve of first compound, second compound 0.00316 µM) | IC50 (curve of first compound, second compound 0.01 µM) | IC50 [1] | IC50 [2] | IC50 [3] | IC50 [4]
inactive: viability, T/C (second compound 0.00316 µM, first compound 0.000949 µM) 110% | viability, T/C (second compound 0.00316 µM, first compound 0.003 µM) 92.8% | viability, T/C (second compound 0.00316 µM, first compound 0.00949 µM) 91.9% | viability, T/C (second compound 0.00316 µM, first compound 0.03 µM) 83.8% | viability, T/C (second compound 0.00316 µM, first compound 0.0949 µM) 100% | viability, T/C (second compound 0.00316 µM, first compound 0.3 µM) 105% | viability, T/C (second compound 0.01 µM, first compound 0.000949 µM) 93.4% | viability, T/C (second compound 0.01 µM, first compound 0.003 µM) 90.6% | viability, T/C (second compound 0.01 µM, first compound 0.00949 µM) 96.6% | viability, T/C (second compound 0.01 µM, first compound 0.03 µM) 92.4% | viability, T/C (second compound 0.01 µM, first compound 0.0949 µM) 108% | viability, T/C (second compound 0.01 µM, first compound 0.3 µM) 98.2% | viability, T/C (second compound 0.0316 µM, first compound 0.000949 µM) 91.4% | viability, T/C (second compound 0.0316 µM, first compound 0.003 µM) 102% | viability, T/C (second compound 0.0316 µM, first compound 0.00949 µM) 92.4% | viability, T/C (second compound 0.0316 µM, first compound 0.03 µM) 92.5% | viability, T/C (second compound 0.0316 µM, first compound 0.0949 µM) 104% | viability, T/C (second compound 0.0316 µM, first compound 0.3 µM) 94% | viability, T/C (second compound 0.1 µM, first compound 0.000949 µM) 86.2% | viability, T/C (second compound 0.1 µM, first compound 0.003 µM) 93.9% | viability, T/C (second compound 0.1 µM, first compound 0.00949 µM) 93.5% | viability, T/C (second compound 0.1 µM, first compound 0.03 µM) 104% | viability, T/C (second compound 0.1 µM, first compound 0.0949 µM) 102% | viability, T/C (second compound 0.1 µM, first compound 0.3 µM) 103% | viability, T/C (second compound 0.316 µM, first compound 0.000949 µM) 95.6% | viability, T/C (second compound 0.316 µM, first compound 0.003 µM) 96.9% | viability, T/C (second compound 0.316 µM, first compound 0.00949 µM) 88.6% | viability, T/C (second compound 0.316 µM, first compound 0.03 µM) 90.1% | viability, T/C (second compound 0.316 µM, first compound 0.0949 µM) 100% | viability, T/C (second compound 0.316 µM, first compound 0.3 µM) 91.5% | viability, T/C (second compound 1 µM, first compound 0.000949 µM) 96.8% | viability, T/C (second compound 1 µM, first compound 0.003 µM) 93.6% | viability, T/C (second compound 1 µM, first compound 0.00949 µM) 102% | viability, T/C (second compound 1 µM, first compound 0.03 µM) 95.9% | viability, T/C (second compound 1 µM, first compound 0.0949 µM) 104% | viability, T/C (second compound 1 µM, first compound 0.3 µM) 86.3%
